In article PMC10454728, “A Comparative Study on the Lysosomal Cation Channel TMEM175 Using Automated Whole-Cell Patch-Clamp, Lysosomal Patch-Clamp, and Solid Supported Membrane-Based Electrophysiology: Functional Characterization and High-Throughput Screening Assay Development” (International Journal of Molecular Sciences, 2023):
“And” between values parts separate entries of the source, which are not always exact repeats. Equal values may be shown once. “Also recorded” adds a separate entry of the source. Read-outs that look alike come from different tables or passages of the source.

Assays:
TMEM175 [1] = molecular target: T1, TMEM175 (Homo sapiens, UniProt Q9BSA9); assay: SSME K+ flux compound assay on purified lysosomes overexpressing TMEM175 (SURFE2R 96SE); assay type: biochemical
T1 sequence (Q9BSA9 1-504): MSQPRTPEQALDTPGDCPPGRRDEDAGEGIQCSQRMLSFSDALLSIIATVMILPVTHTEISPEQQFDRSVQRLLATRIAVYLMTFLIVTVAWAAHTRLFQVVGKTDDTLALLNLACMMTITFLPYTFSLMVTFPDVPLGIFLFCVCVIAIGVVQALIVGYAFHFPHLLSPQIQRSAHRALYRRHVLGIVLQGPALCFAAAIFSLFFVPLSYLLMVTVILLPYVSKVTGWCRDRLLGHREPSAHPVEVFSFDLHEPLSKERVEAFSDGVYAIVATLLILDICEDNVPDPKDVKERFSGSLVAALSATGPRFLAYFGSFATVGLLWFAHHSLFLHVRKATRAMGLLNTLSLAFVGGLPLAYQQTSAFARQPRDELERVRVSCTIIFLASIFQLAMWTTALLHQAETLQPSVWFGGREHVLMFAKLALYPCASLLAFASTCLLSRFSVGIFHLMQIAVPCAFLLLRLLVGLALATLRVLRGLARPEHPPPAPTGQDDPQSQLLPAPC
Procedure: In brief, compound measurements using SSME are performed in a three-step process (Figure 6B). First, TMEM175-mediated K^+ translocation is measured through 50 mM K^+ concentration jumps. This represents the baseline current of TMEM175 activity (I0). […] Third, the activation through a 50 mM K^+ concentration jump is repeated, this time in the presence of the compound to record the modulated TMEM175 current (I). In this process, each individual sensor of the 96-well sensor plate is only exposed to a single concentration of the compound. The relative current amplitude I/I0 is used as a measure of the compound effect and averaged across sensors.
We applied 50 mM K^+ concentration jumps in the absence and presence of different compound concentrations to derive information about compound effects on K^+ flux through TMEM175; (B) Time dependence of recorded peak current amplitudes for the complete workflow, which involves multiple sequential measurements. […] The recording of each sensor well starts with the application of a control measurement, rinsing non-activating solution across the sensor (baseline recording). Afterwards, we performed three solution exchange measurements from 50 mM NaCl to 50 mM KCl to measure K^+ flux through TMEM175 (baseline TMEM175 current, I0). We then rinsed the sensor with non-activating solution containing the compound at a given concentration, followed by incubation of 15 min to equilibrate the sensors with the compound. Subsequently, the solution exchange from 50 mM NaCl to 50 mM KCl is repeated twice, but in the presence of the given compound concentration to determine the modulated peak current I. Afterwards, we repeated the measurement in the absence of the compound three times (wash-out) to recover the non-modulated TMEM175 current. We subtracted the average artifact current recorded with control lysosomes from I and I0 (Figure 1K), without considering off-target effects of the tested compound. […] Success rates were determined based on the QC criteria provided in the Methods section. […] We determined average values, AVGpos and AVGneg, and standard deviations, SDpos and SDneg, of the recorded peak currents. […] Error bars represent the SEM obtained from automated data analysis using DataControl96, based on variations of the currents obtained with the TMEM175 sample. Each compound concentration was recorded with at least N = 8 sensors. […] Imin was always fixed to 0 for inhibitors or 1 for enhancers, as indicated. […] A total of 50 µL of 0.1 mM octadecanethiol in isopropanol was added to each sensor well, following incubation for 30 min at room temperature to form an alkanethiol monolayer on the sensor surface. Subsequently, the sensors were washed twice with isopropanol and three times with ddH2O, before dry-tapping on a tissue. The subsequent process of sensor coating with lipid and lysosomes was carried out manually for the SURFE^2R N1 and automated with the SURFE^2R 96SE serving as a pipetting robot. In both cases, 1.5 µL of 7.5 mg/mL 1,2-diphytanoyl-sn-glycero-3-phosphocholine (DPhPC) in n-decane was added to the center of the circular gold surface, followed by the addition of 50 µL of non-activating solution to form the SSM. The composition of the non-activating solution was adjusted for each experiment (Table 2). […] SSM-coated 96-well sensor plates were stored at −80 °C before use.

[2] = system: control lysosomes purified from HEK293 cells expressing endogenous TMEM175; assay: SSME off-target compound effects on control lysosomes (SURFE2R N1)
Procedure: A solution exchange of 50 mM Na^+ against 50 mM K^+ was used to stimulate TMEM175. […] Average peak currents and SEM, recorded from N = 5 sensors, are shown. […] Each sensor was used for four measurements in the following sequence: in the absence of compound, in the presence of 100 nM compound, in the presence of 10 µM compound, and in the absence of compound (wash-out). Datasets were normalized to the peak current recorded in the absence of compound before averaging. […] The three different experimental conditions shown in one graph were applied on the same sensor. Average peak currents and SD from N = 4 sensors are shown, and no normalization was applied.

TMEM175 [3] = molecular target: T1, TMEM175; assay: Whole-cell automated patch-clamp (APC) Cs+ flux assay, SyncroPatch 384i, HEK293 overexpressing TMEM175; assay type: cell-based
Procedure: To validate the APC assay, we compared currents between TMEM175-overexpressing cells and control HEK293 UT cells. […] In our compound application protocol, which was used to evaluate compound potencies, we consistently administered tool compounds to assess their impact on TMEM175 activity (Figure 7C).
The voltage protocol generation and data collection were performed with PatchControl384 v1.9.0 and analyzed with DataControl384 v2.2.0. A multi-hole, medium resistance chip with four patch-clamp holes per well was used for recording.
DMSO remained constant at 0.2% and BSA at 0.05% in the external solution throughout the assay, if not stated otherwise.
The voltage protocol applied for the investigation of the tool compounds (Figure 7) consisted of a 500 ms ramp from −80 mV to +80 mV, followed by a 400 ms step from −80 mV to +80 mV before returning to the holding potential of 0 mV (Figure 7B). The maximum outward current amplitude obtained at +80 mV from the ramp section was used for analysis. To investigate the blinded test compounds (Figure 8), an alternative voltage protocol was applied. […] The maximum outward current amplitude obtained at 0 mV from the voltage step section was used for analysis. In both voltage protocols, voltage sweeps were repeated every 10 s and currents sampled at 10 kHz.
The application protocol for agonists consisted of two additions of extracellular physiological solution for a minimum of 3 min, followed by the external application of the test compound for a minimum of 2 min (Figure 7C).
Currents recorded after compound addition were normalized to the baseline current before compound addition, averaged, and plotted over the compound concentration to determine the EC50 and IC50 values.

TMEM175 [4] = conditions: cited from earlier work; for IC50: read-out: IC50, literature
[5] = Table 4 fit, currents normalized to current before compound
[6] = from dose-response fit, Figure 8

SMILES: Nc1ccncc1 [4-AP, 4-aminopyridine]
- TMEM175 sample current in the presence of compound, SSME (TMEM175 [1]; 10 mM 4-AP, 50 mM K+ jump, not artifact-corrected): −1.22 ± 0.1 nA
- Effect of 10 mM compound on TMEM175 K+ current, SSME (TMEM175 [1]; 50 mM K+ jump): full block
- Off-target signal potentiation on control lysosomes ([2]; 10 mM 4-AP): +380 pA
- Artifact current of control lysosomes in presence of compound ([2]; 10 mM 4-AP, 50 mM K+ jump): −0.69 ± 0.37 nA
- Off-target effect compared to effect on TMEM175 lysosomes ([2]; 10 mM 4-AP, opposite direction): ~ 8%
- Effect on current of control lysosomes, H+ influx (pH jump) ([2]; 10 mM 4-AP, ΔpH 3.0): did not affect
- Signal block, APC (TMEM175 [3]; 1 mM 4-AP, over 125 plates): 73 ± 14%

SMILES: CCOC(=O)C1=C(N)Oc2ccc(Cl)cc2C1C(C#N)C(=O)OCC (stereo not drawn) [SC-79]
- n (Hill coefficient), SSME (TMEM175 [1]; Table 4 fit): 0.89 ± 0.6
- Imax − Imin (nA), SSME (TMEM175 [1]; [5]): 0.09 ± 0.04 ^1 nA
- Potentiation, SSME (TMEM175 [1]; [6]): 9 ± 4%
- Control current in presence of compound ([2]; 30 µM SC-79): −0.64 ± 0.27 nA
- n (Hill coefficient), APC (TMEM175 [3]; Table 4 fit): 1.17 ± 0.38
- Imax − Imin (nA), APC (TMEM175 [3]; [5]): 2.45 ± 1.02 nA
- Current potentiation, APC (TMEM175 [3]; [6]): 245 ± 102% and 345 ± 102%
- EC50 (TMEM175 [3]; test-compound voltage protocol, outward current at 0 mV, not corrected for off-target effects, read-out: EC50 (µM), APC): 62 µM and 61.8 µM
- Increase in TMEM175-mediated K+ flux, literature (TMEM175 [4]; 10 µM, +80 mV, ref [48]): two-fold
- Effect on TMEM175 in whole-cell patch-clamp, literature (TMEM175 [4]; ref [6]): did not find any effect

SMILES: [Cl-].[Cl-].[Zn+2] [Zn, ZnCl2]
- Effect of 10 mM compound on TMEM175 K+ current, SSME (TMEM175 [1]; 50 mM K+ jump): full block
- IC50 in SSME relative to literature value (higher) (TMEM175 [1]; 4-AP vs largest literature value for K+ flux, zinc vs literature value): 50 fold
- IC50 (TMEM175 [1]; K+ flux, 50 mM K+ jump, pH 7.6, 0 mV, external (cytosolic side) application, artifact-corrected, read-out: Half saturation (IC50), SSME): 1530 µM
- Relative current, SSME (TMEM175 [1]; at 10 mM (highest concentration), relative to TMEM175 baseline current (100%)): 19.2 ± 4.6% (10 mM)
- Off-target effect on control lysosomes ([2]; zinc, two highest concentrations): off-target inhibition
- Signal enhancement, APC (TMEM175 [3]; 0.5 mM ZnCl2, over 125 plates): 301 ± 94%
- Effect of raising zinc up to 10 mM, APC (TMEM175 [3]; 0.5 mM to 10 mM, listed as zinc): could not find any changes; also recorded: without further impacting the recorded currents
- Relative current, APC (TMEM175 [3]; enhancers, (50 µM), relative to baseline current (100%)): 400 ± 40% (50 µM)
- EC50 (TMEM175 [3]; tool compounds, Cs+ flux, outward current at +80 mV, 0.05% BSA, read-out: Half saturation (EC50), APC): 102 µM
- IC50 (TMEM175 [4]; whole-organelle patch-clamp, ref [1]): 38 ± 13 µM

SMILES: CCCCC1(C2CCCC2)Cc2cc(OCCCC(=O)O)c(Cl)c(Cl)c2C1=O (stereo not drawn) [DCPIB]
- EC50 (TMEM175 [1]; tool enhancers, K+ flux, 50 mM K+ jump, pH 7.6, 0 mV, artifact-corrected, read-out: Half saturation (EC50), SSME): 9.6 µM
- Control current in presence of compound ([2]; 20 µM DCPIB): +0.69 ± 0.41 nA
- Off-target effect compared to effect on TMEM175 lysosomes ([2]; 20 µM DCPIB): ~ 35%
- EC50 (TMEM175 [3]): 16.7 µM
- Increase in K+ flux through TMEM175, literature (TMEM175 [4]; 50 µM, +80 mV, ref [6]): eight-fold
